For data set [1], the system named is N2a. Description: Induction of cell proliferation in mouse Neuro2a cells at 50 uM incubated for 48 hrs by CCK8 assay. It counts as functional, cell-based.
Data set [2] relates to N2a. The data set is described as follows: Downregulation of Wnt7b level in mouse Neuro2a cells at 50 uM incubated for 48 hrs by Western blot analysis. It counts as functional, cell-based.
Data set [3] can be described thus: Clearance in C57BL/6 mouse at 10 mg/kg, iv measured for 24 hrs. It counts as ADME, organism-based. Conditions: in vivo.
Data set [4] concerns Neuron. Description: Induction of neurite growth in mouse primary neurons assessed as increase in neurite length at 50 uM incubated for 48 hrs by imaging analysis. The class given is functional, cell-based.
Data set [5] has as its system A-431. The data set is described as follows: Effect on Wnt7b gene expression in human A-431 cells by RNA-Seq analysis. It counts as functional, cell-based.
The subject of data set [6] is SH-SY5Y. The data set is described as follows: Cytotoxicity against human SH-SY5Y cells assessed as inhibition of cell viability incubated for 48 hrs by CCK8 assay. It counts as functional, cell-based.
For the next data set, the system named is U-87 MG. Description: Cytotoxicity against human U-87 MG cells assessed as inhibition of cell viability incubated for 48 hrs by CCK8 assay. The class given is functional, cell-based, U-87MG ATCC.
In data set [7] the test system is SH-SY5Y. The data set is described as follows: Neuroprotective effect against MPP+-induced cytotoxicity in human SH-SY5Y cells assessed as increase in cell viability at 50 uM incubated for 24 hrs followed by MPP+ addition measured after 4 hrs by CCK8 assay relative to control. It counts as functional. To be noted: time 28 hrs.
For data set [8], the system named is N2a. Description: Cytotoxicity against mouse Neuro2a cells assessed as inhibition of cell viability incubated for 48 hrs by CCK8 assay. It counts as functional, cell-based.
Another data set relates to PC-12. Description: Cytotoxicity against rat PC12 cells assessed as inhibition of cell viability incubated for 48 hrs by CCK8 assay. The class given is functional, cell-based. To be noted: PC-12, 48 h.
In data set [9] the test system is Neuron. The data set is described as follows: Induction of neurite growth in mouse primary neurons at 50 uM incubated for 48 hrs in presence of NGF by imaging analysis. The class given is functional, cell-based.
Data set [10] relates to A-431. The data set is described as follows: Effect on Rac2 gene expression in human A-431 cells by RNA-Seq analysis. The class given is functional, cell-based.
For data set [11], the system named is Neuron. Description: Induction of neurite growth in mouse primary neurons assessed as increase in MAP2 level incubated for 48 hrs in presence of NGF by Western blot analysis. It counts as functional, cell-based.
The test system of data set [12] is N2a. Description: Effect on […] level in mouse Neuro2a cells at 50 uM incubated for 48 hrs by Western blot analysis. The class given is functional, cell-based.
Data set [13] is described as follows: Half life in C57BL/6 mouse at 10 mg/kg, iv measured for 24 hrs. The class given is ADME, organism-based. To be noted: in vivo.

The source made the active and inactive calls. No cut-off for these calls is given here.

Turning to `CCCCCCCCCCCCC/C=C/[C@@H](O)[C@H](CO[C@@H]1O[C@H](CO)[C@@H](O[C@@H]2O[C@H](CO)[C@H](O)[C@H](O[C@]3(C(=O)O)C[C@H](O)[C@@H](NC(=O)Cc4cccc([N+](=O)[O-])c4)C([C@@H](O)[C@H](O)CO)O3)[C@H]2O)[C@H](O)[C@H]1O)NC(=O)CCCCCCCCCCCCCCCCC` (some centres not stated), the outcome in the data set with N2a [1], with N2a [2], in the data set with Neuron [4], with A-431 [5], with Neuron [9] and in the data set on A-431 [10] was Active. Also, the outcome with Neuron [11] was Active. The same compound displayed a CL in data set [3] of 0.467 µL/min/mg. Also, the IC50 in the data set on SH-SY5Y [6], with U-87 MG, with N2a [8] and in the data set with PC-12 was > 200 µM throughout. Moreover, the Activity in the data set on SH-SY5Y [7] came out at 18.8%. Besides, in the data set with N2a [12], the result was inactive. For the same compound, in data set [13], the half-life was 49.3 h.
`CCCCCCCCCCCCC/C=C/[C@@H](O)[C@H](CO[C@@H]1O[C@H](CO)[C@@H](O[C@@H]2O[C@H](CO)[C@H](O)[C@H](O[C@]3(C(=O)O)C[C@H](O)[C@@H](NC(=O)Cc4ccc(C)cc4)C([C@@H](O)[C@H](O)CO)O3)[C@H]2O)[C@H](O)[C@H]1O)NC(=O)CCCCCCCCCCCCCCCCC` (some centres not stated): the IC50 with SH-SY5Y [6], in the data set with U-87 MG, with N2a [8] and in the data set with PC-12 was > 200 µM throughout.
For `CCCCCCCCCCCCC/C=C/[C@@H](O)[C@H](CO[C@@H]1O[C@H](CO)[C@@H](O[C@@H]2O[C@H](CO)[C@H](O)[C@H](O[C@]3(C(=O)O)C[C@H](O)[C@@H](NC(=O)c4ccncc4)C([C@@H](O)[C@H](O)CO)O3)[C@H]2O)[C@H](O)[C@H]1O)NC(=O)CCCCCCCCCCCCCCCCC` (some centres not stated), the IC50 with SH-SY5Y [6], in the data set with U-87 MG, in the data set with N2a [8] and in the data set on PC-12 was > 200 µM in each case.
Regarding `CCCCCCCCCCCCC/C=C/[C@@H](O)[C@H](CO[C@@H]1O[C@H](CO)[C@@H](O[C@@H]2O[C@H](CO)[C@H](O)[C@H](O[C@]3(C(=O)O)C[C@H](O)[C@@H](NC(=O)Cc4ccc(Br)cc4)C([C@@H](O)[C@H](O)CO)O3)[C@H]2O)[C@H](O)[C@H]1O)NC(=O)CCCCCCCCCCCCCCCCC` (some centres not stated), the half-inhibitory concentration (IC50) in the data set with SH-SY5Y [6], with U-87 MG, in the data set with N2a [8] and in the data set on PC-12 was > 200 µM in each case.
For `CCCCCCCCCCCCC/C=C/[C@@H](O)[C@H](CO[C@@H]1O[C@H](CO)[C@@H](O[C@@H]2O[C@H](CO)[C@H](O)[C@H](O[C@]3(C(=O)O)C[C@H](O)[C@@H](NC(=O)c4cc(C)cc(C)c4)C([C@@H](O)[C@H](O)CO)O3)[C@H]2O)[C@H](O)[C@H]1O)NC(=O)CCCCCCCCCCCCCCCCC` (some centres not stated), the IC50 with SH-SY5Y [6], in the data set with U-87 MG, in the data set on N2a [8] and in the data set on PC-12 was > 200 µM throughout.
Consider `CCCCCCCCCCCCC/C=C/[C@@H](O)[C@H](CO[C@@H]1O[C@H](CO)[C@@H](O[C@@H]2O[C@H](CO)[C@H](O)[C@H](O[C@]3(C(=O)O)C[C@H](O)[C@@H](NC(=O)c4cccc([N+](=O)[O-])c4)C([C@@H](O)[C@H](O)CO)O3)[C@H]2O)[C@H](O)[C@H]1O)NC(=O)CCCCCCCCCCCCCCCCC` (some centres not stated), for which the outcome in the data set on N2a [1] was Active. The half-maximal inhibitory concentration (IC50) in the data set with SH-SY5Y [6], with U-87 MG, with N2a [8] and with PC-12 was > 200 µM in each case. The Activity in the data set with SH-SY5Y [7] was 9.3%.

Source of the values: ChEMBL document CHEMBL5543073, “Synthesis, biological activity evaluation and mechanism analysis of new ganglioside GM3 derivatives as potential agents for nervous functional recovery” (Eur J Med Chem, 2024).
